Results reported in the NIST ThermoML archive (doi:10.1016/j.jct.2019.02.027).
Where “and” joins values, the source holds several entries; their conditions need not be identical. Equal entries are not always repeated. ± gives the expanded uncertainty stated by the source.

How the values were obtained:
[1] = 298.15 K; 101.33 kPa; Liquid; Vibrating tube method
[2] = xn = mol fraction of the nth substance listed; settings: 298.15 K, 100 kPa, Liquid, Vibrating tube method

O=Cc1ccco1 [2-furaldehyde]
Settings	mass density [kg/m3]
[1]	1155.45 ± 2.8

O=Cc1ccco1 [2-furaldehyde] + CC(C)O
[2]
Settings	mass density [kg/m3]
x1 = 0.0534	803.11 ± 3
x1 = 0.0877	817.2 ± 3
x1 = 0.1839	856.01 ± 3
x1 = 0.2041	864.12 ± 3
x1 = 0.2517	882.87 ± 3
x1 = 0.2794	893.74 ± 3
x1 = 0.2855	896.16 ± 3
x1 = 0.4063	942.61 ± 3.1
x1 = 0.5153	983.56 ± 3.1
x1 = 0.5364	991.32 ± 3.1
x1 = 0.5702	1003.8 ± 3.1
x1 = 0.6564	1035.2 ± 3.1
x1 = 0.7345	1063.04 ± 3.1
x1 = 0.8252	1094.94 ± 3.2
x1 = 0.9055	1122.98 ± 3.2
x1 = 1	1155.45 ± 2.8

O=Cc1ccco1 [2-furaldehyde] + CCC(C)O
[2]
Settings	mass density [kg/m3]
x1 = 0.0237	810.18 ± 2.9
x1 = 0.0782	827.38 ± 2.9
x1 = 0.1343	845.24 ± 3
x1 = 0.1345	845.28 ± 3
x1 = 0.2696	889.52 ± 3
x1 = 0.2773	892.16 ± 3
x1 = 0.417	939.59 ± 3
x1 = 0.4498	951 ± 3
x1 = 0.535	980.92 ± 3
x1 = 0.6274	1014.08 ± 3
x1 = 0.6673	1028.58 ± 3
x1 = 0.7355	1053.74 ± 3
x1 = 0.803	1079.08 ± 3
x1 = 0.8794	1108.12 ± 3.1
x1 = 1	1155.45 ± 2.8

O=Cc1ccco1 [2-furaldehyde] + CCCC(C)O
Settings	mass density [kg/m3]
[2], x1 = 1	1155.45 ± 3.8

O=Cc1ccco1 [2-furaldehyde] + CCCCCCO
[2]
Settings	mass density [kg/m3]
x1 = 0.0958	837.47 ± 3.9
x1 = 0.1364	847.08 ± 3.9
x1 = 0.1378	847.41 ± 3.9
x1 = 0.2218	868.43 ± 3.9
x1 = 0.2573	877.76 ± 3.9
x1 = 0.2623	879.07 ± 3.9
x1 = 0.2983	888.83 ± 3.9
x1 = 0.3699	909.14 ± 3.9
x1 = 0.4124	921.74 ± 3.9
x1 = 0.4947	947.51 ± 3.9
x1 = 0.4965	948.07 ± 3.9
x1 = 0.5802	976.2 ± 3.9
x1 = 0.6437	998.96 ± 3.9
x1 = 0.7375	1035.07 ± 3.9
x1 = 0.7661	1046.67 ± 3.9
x1 = 0.7703	1048.36 ± 3.9
x1 = 0.847	1081.45 ± 3.9
x1 = 0.8939	1102.9 ± 3.9
x1 = 1	1155.45 ± 3.8

O=Cc1ccco1 [2-furaldehyde] + CCCCCO
[2]
Settings	mass density [kg/m3]
x1 = 0.0837	833.12 ± 2.9
x1 = 0.1212	843.42 ± 2.9
x1 = 0.1906	863.01 ± 2.9
x1 = 0.2617	883.85 ± 2.9
x1 = 0.2997	895.29 ± 2.9
x1 = 0.3856	922.11 ± 2.9
x1 = 0.4254	934.98 ± 2.9
x1 = 0.5075	962.35 ± 2.9
x1 = 0.5396	973.38 ± 2.9
x1 = 0.6236	1003.18 ± 3
x1 = 0.708	1034.59 ± 3
x1 = 0.7358	1045.18 ± 3
x1 = 0.7671	1057.41 ± 3
x1 = 0.8967	1110.25 ± 3
x1 = 0.9015	1112.3 ± 3
x1 = 1	1155.45 ± 2.8

O=Cc1ccco1 [2-furaldehyde] + CCCO
[2]
Settings	mass density [kg/m3]
x1 = 0.0847	834.01 ± 3
x1 = 0.134	853.46 ± 3
x1 = 0.2237	888 ± 3
x1 = 0.2415	894.81 ± 3
x1 = 0.2507	898.28 ± 3
x1 = 0.2827	910.39 ± 3
x1 = 0.3632	940.23 ± 3.1
x1 = 0.4309	964.88 ± 3.1
x1 = 0.5022	990.31 ± 3.1
x1 = 0.6164	1030.13 ± 3.1
x1 = 0.7194	1065 ± 3.1
x1 = 0.7803	1085.14 ± 3.1
x1 = 0.8714	1114.75 ± 3.2
x1 = 0.9006	1124.2 ± 3.2
x1 = 0.9038	1125.2 ± 3.2
x1 = 1	1155.45 ± 2.8

Cc1ccco1 [2-methylfuran]
Settings	mass density [kg/m3]
[1]	910.73 ± 2.2

Cc1ccco1 [2-methylfuran] + CC(C)O
[2]
Settings	mass density [kg/m3]
x1 = 0.0267	785.02 ± 2.6
x1 = 0.0493	788.28 ± 2.6
x1 = 0.0908	794.29 ± 2.6
x1 = 0.1257	799.31 ± 2.6
x1 = 0.179	806.65 ± 2.6
x1 = 0.2619	817.86 ± 2.6
x1 = 0.2995	822.82 ± 2.6
x1 = 0.3935	835.05 ± 2.6
x1 = 0.537	853.23 ± 2.6
x1 = 0.6047	861.52 ± 2.6
x1 = 0.6784	870.65 ± 2.6
x1 = 0.7217	876.04 ± 2.6
x1 = 0.8122	886.89 ± 2.6
x1 = 0.8256	888.45 ± 2.6
x1 = 0.8759	894.66 ± 2.6
x1 = 0.9472	903.47 ± 2.6
x1 = 1	910.73 ± 2.4

Cc1ccco1 [2-methylfuran] + CCC(C)O
[2]
Settings	mass density [kg/m3]
x1 = 0.0549	808.11 ± 2.8
x1 = 0.0656	809.45 ± 2.8
x1 = 0.0952	812.22 ± 2.8
x1 = 0.1847	821.08 ± 2.8
x1 = 0.2954	831.67 ± 2.8
x1 = 0.3763	839.84 ± 2.8
x1 = 0.4673	849.03 ± 2.8
x1 = 0.5696	859.9 ± 2.8
x1 = 0.6998	873.97 ± 2.8
x1 = 0.7611	881.06 ± 2.8
x1 = 0.8132	887.16 ± 2.9
x1 = 0.8548	891.9 ± 2.9
x1 = 0.8832	895.12 ± 2.9
x1 = 0.8998	897.35 ± 2.9
x1 = 0.9091	898.45 ± 2.9
x1 = 0.9333	901.44 ± 2.9
x1 = 1	910.73 ± 2.4

Cc1ccco1 [2-methylfuran] + CCCC(C)O
[2]
Settings	mass density [kg/m3]
x1 = 0.0907	813.42 ± 3.6
x1 = 0.1322	816.51 ± 3.6
x1 = 0.1794	820.47 ± 3.6
x1 = 0.2576	827.04 ± 3.6
x1 = 0.3029	831.05 ± 3.6
x1 = 0.4278	842.47 ± 3.6
x1 = 0.4997	849.64 ± 3.6
x1 = 0.6108	861.2 ± 3.6
x1 = 0.6993	871.1 ± 3.6
x1 = 0.7296	874.59 ± 3.6
x1 = 0.8143	884.9 ± 3.6
x1 = 0.8675	891.71 ± 3.6
x1 = 0.9023	896.39 ± 3.6
x1 = 0.9441	902.21 ± 3.6
x1 = 1	910.73 ± 3.6

Cc1ccco1 [2-methylfuran] + CCCCCCO
[2]
Settings	mass density
x1 = 0.048	819.02 ± 3.7 kg/m3
x1 = 0.0765	820.93 ± 3.7 kg/m3
x1 = 0.1423	825.44 ± 3.7 kg/m3
x1 = 0.2086	830.14 ± 3.7 kg/m3
x1 = 0.2804	835.45 ± 3.7 kg/m3
x1 = 0.3598	841.72 ± 3.7 kg/m3
x1 = 0.4591	850.07 ± 3.7 kg/m3
x1 = 0.4916	852.91 ± 3.7 kg/m3
x1 = 0.5728	860.42 ± 3.7 kg/m3
x1 = 0.6478	867.88 ± 3.7 kg/m3
x1 = 0.7472	878.45 ± 3.7 kg/m3 and 878.33 ± 3.7 kg/m3
x1 = 0.7965	884.09 ± 3.7 kg/m3
x1 = 0.8596	891.67 ± 3.7 kg/m3
x1 = 0.888	895.23 ± 3.7 kg/m3
x1 = 0.9411	902.08 ± 3.7 kg/m3
x1 = 1	910.73 ± 3.6 kg/m3

Cc1ccco1 [2-methylfuran] + CCCCCO
[2]
Settings	mass density [kg/m3]
x1 = 0.1002	819.28 ± 2.5
x1 = 0.1263	821.43 ± 2.5
x1 = 0.1771	825.74 ± 2.5
x1 = 0.22	829.43 ± 2.5
x1 = 0.2723	834 ± 2.5
x1 = 0.3399	840.06 ± 2.5
x1 = 0.4257	848.01 ± 2.5
x1 = 0.4599	851.26 ± 2.5
x1 = 0.5134	856.49 ± 2.5
x1 = 0.593	864.51 ± 2.5
x1 = 0.6556	871.07 ± 2.5
x1 = 0.7006	875.92 ± 2.5
x1 = 0.7559	881.98 ± 2.5
x1 = 0.8293	890.24 ± 2.5
x1 = 0.8836	896.44 ± 2.5
x1 = 1	910.73 ± 2.4

CCC(C)O (configuration not stated) [butan-2-ol]
Settings	mass density [kg/m3]
[1]	802.88 ± 1

CCC(C)O (configuration not stated) [butan-2-ol] + Cc1ccco1
Settings	mass density [kg/m3]
[2], x2 = 0	802.88 ± 2.4

CCC(C)O (configuration not stated) [butan-2-ol] + O=Cc1ccco1
Settings	mass density [kg/m3]
[2], x2 = 0	802.88 ± 2.8

CCO [ethanol]
Settings	mass density [kg/m3]
[1]	785.45 ± 1

CCO [ethanol] + O
[2]
Settings	mass density [kg/m3]
x1 = 0.0641	970.7 ± 3.1
x1 = 0.127	952.3 ± 2.7
x1 = 0.1461	950.1 ± 2.4
x1 = 0.2437	920.1 ± 2.8
x1 = 0.387	883.5 ± 2.7
x1 = 0.4238	876.2 ± 2.5
x1 = 0.7084	825.2 ± 2.4
x1 = 1	785.5 ± 2.3

CCCCCCO [hexan-1-ol]
Settings	mass density [kg/m3]
[1]	815.9 ± 2.8

CCCCCCO [hexan-1-ol] + Cc1ccco1
Settings	mass density [kg/m3]
[2], x2 = 0	815.9 ± 3.6

CCCCCCO [hexan-1-ol] + O=Cc1ccco1
Settings	mass density [kg/m3]
[2], x2 = 0	815.9 ± 3.8

CCCCCO [pentan-1-ol]
Settings	mass density [kg/m3]
[1]	810.9 ± 1

CCCCCO [pentan-1-ol] + Cc1ccco1
Settings	mass density [kg/m3]
[2], x2 = 0	810.9 ± 2.4

CCCCCO [pentan-1-ol] + O=Cc1ccco1
Settings	mass density [kg/m3]
[2], x2 = 0	810.9 ± 2.8

CCCC(C)O (configuration not stated) [pentan-2-ol]
Settings	mass density [kg/m3]
[1]	806.48 ± 2.8

CCCC(C)O (configuration not stated) [pentan-2-ol] + Cc1ccco1
Settings	mass density [kg/m3]
[2], x2 = 0	806.48 ± 3.6

CCCC(C)O (configuration not stated) [pentan-2-ol] + O=Cc1ccco1
[2]
Settings	mass density [kg/m3]
x2 = 0	806.48 ± 3.8
x2 = 0.092	831.24 ± 3.9
x2 = 0.1912	859.17 ± 3.9
x2 = 0.2652	880.87 ± 3.9
x2 = 0.3627	910.83 ± 3.9
x2 = 0.4245	930.64 ± 3.9
x2 = 0.4984	955.28 ± 3.9
x2 = 0.5417	970.2 ± 3.9
x2 = 0.6211	998.57 ± 3.9
x2 = 0.6746	1018.53 ± 3.9
x2 = 0.7117	1032.71 ± 3.9
x2 = 0.7692	1055.38 ± 3.9
x2 = 0.8249	1078.15 ± 3.9
x2 = 0.879	1101.1 ± 4
x2 = 0.9111	1115.13 ± 4
x2 = 0.9542	1134.34 ± 4

CCCO [propan-1-ol]
Settings	mass density [kg/m3]
[1]	799.97 ± 0.64

CCCO [propan-1-ol] + O=Cc1ccco1
Settings	mass density [kg/m3]
[2], x2 = 0	799.97 ± 2.8

CC(C)O [propan-2-ol]
Settings	mass density [kg/m3]
[1]	780.95 ± 1

CC(C)O [propan-2-ol] + Cc1ccco1
Settings	mass density [kg/m3]
[2], x2 = 0	780.95 ± 2.4

CC(C)O [propan-2-ol] + O=Cc1ccco1
Settings	mass density [kg/m3]
[2], x2 = 0	780.95 ± 2.8
